Measurements from ChEMBL document CHEMBL1201862, “PubChem BioAssay data set” (2004).
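Interpolation was linear, between the two tested concentrations surrounding the appropriate level; five concentrations were tested over 48 hours in 96-well plates. GI50: concentration for 50% inhibition of growth.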 Activity calls are given as the source filed them. Rule as the data show it: active = GI50 up to about 1.1 µM and inactive = higher.

Key:
Test in all cases: growth of human tumour cells (NCI), 48 h
M14 = tested on: M14
A549 = tested on: A549
IGROV-1 = tested on: IGROV-1
786-0 = tested on: 786-0
PC-3 = tested on: PC-3
UACC-62 = tested on: UACC-62
SF-295 = tested on: SF-295
SN12C = tested on: SN12C
MOLT-4 = tested on: MOLT-4
U-251 = tested on: U-251
CAKI-1 = tested on: CAKI-1
DU-145 = tested on: DU-145
HCT-15 = tested on: HCT-15
NCI/ADR-RES = tested on: NCI/ADR-RES
T47D = tested on: T47D
COLO 205 = tested on: COLO 205
EKVX = tested on: EKVX
SNB-19 = tested on: SNB-19
LOX IMVI = tested on: LOX IMVI

Compound | GI50 (M14) | GI50 (A549) | GI50 (IGROV-1) | GI50 (786-0) | GI50 (PC-3) | GI50 (UACC-62) | GI50 (SF-295) | GI50 (SN12C) | GI50 (MOLT-4) | GI50 (U-251) | GI50 (CAKI-1) | GI50 (DU-145) | GI50 (HCT-15) [µM] | GI50 (NCI/ADR-RES) | GI50 (T47D) | GI50 (COLO 205) | GI50 (EKVX) | GI50 (SNB-19) | GI50 (LOX IMVI)
O=C1CC(=O)NC(NN2C(=O)CSC2c2ccccc2)=N1 (stereo not given) | > 100 µM (inactive) | > 100 µM (inactive) | > 100 µM (inactive) | > 100 µM (inactive) | > 100 µM (inactive) | > 100 µM (inactive) | > 100 µM (inactive) | > 100 µM (inactive) | > 100 µM (inactive) | > 100 µM (inactive) | > 100 µM (inactive) | > 100 µM (inactive) | > 100 | > 100 µM (inactive) | > 100 µM (inactive) | > 100 µM (inactive) | – | – | –
CC(=O)c1ccc2c(c1)CC1(C2)Cc2cc3c(cc2C1=O)CCC3 (stereo not given) | 15 µM (inactive) | 20.9 µM (inactive) | 19.8 µM (inactive) | 19.3 µM (inactive) | 19.2 µM (inactive) | – | 21.8 µM (inactive) | 16.7 µM (inactive) | 4.28 µM (inactive) | 30.3 µM (inactive) | 12.9 µM (inactive) | 24.3 µM (inactive) | 29 | 12.2 µM (inactive) | 20.5 µM (inactive) | 14.9 µM (inactive) | 25.2 µM (inactive) | 58.9 µM (inactive) | 17.7 µM (inactive)
CCCCCCCCOC1C(O)C(O)C(O)C(O)C12CO2 (stereo not given) | – | 49.5 µM (inactive) | 75.5 µM (inactive) | 73.8 µM (inactive) | 55.3 µM (inactive) | 83.4 µM (inactive) | 43.8 µM (inactive) | 51.2 µM (inactive) | 38.9 µM (inactive) | 41.9 µM (inactive) | 90.4 µM (inactive) | 76.6 µM (inactive) | 50.4 | 40.5 µM (inactive) | 63.2 µM (inactive) | > 100 µM (inactive) | – | 91.4 µM (inactive) | 48.4 µM (inactive)
Cc1cc2nnn(C3CCCO3)c2cc1C (stereo not given) | > 100 µM (inactive) | > 100 µM (inactive) | > 100 µM (inactive) | > 100 µM (inactive) | > 100 µM (inactive) | > 100 µM (inactive) | > 100 µM (inactive) | > 100 µM (inactive) | > 100 µM (inactive) | > 100 µM (inactive) | > 100 µM (inactive) | > 100 µM (inactive) | > 100 | > 100 µM (inactive) | > 100 µM (inactive) | > 100 µM (inactive) | > 100 µM (inactive) | – | –
COc1ccc(/C=C2\Sc3nnc(-c4ccccc4)n3N=C2c2cc(F)c(Cl)cc2Cl)cc1OC | 29.3 µM (inactive) | – | 40.4 µM (inactive) | 48.4 µM (inactive) | 66.2 µM (inactive) | – | > 100 µM (inactive) | – | 0.948 µM (active) | > 100 µM (inactive) | 31 µM (inactive) | > 100 µM (inactive) | 19.1 | 33.1 µM (inactive) | 29.6 µM (inactive) | – | > 100 µM (inactive) | – | > 100 µM (inactive)
O=c1cc(O)c2ccccc2o1 [4-HYDROXYCOUMARINS] | > 100 µM (inactive) | > 100 µM (inactive) | > 100 µM (inactive) | > 100 µM (inactive) | > 100 µM (inactive) | > 100 µM (inactive) | > 100 µM (inactive) | > 100 µM (inactive) | > 100 µM (inactive) | > 100 µM (inactive) | > 100 µM (inactive) | > 100 µM (inactive) | – | > 100 µM (inactive) | > 100 µM (inactive) | > 100 µM (inactive) | > 100 µM (inactive) | > 100 µM (inactive) | > 100 µM (inactive)
Cc1c[nH]c(C(=O)O)c1-c1cccn1-c1ccc(Cl)cc1[N+](=O)[O-] | > 100 µM (inactive) | 83.4 µM (inactive) | 36.3 µM (inactive) | > 100 µM (inactive) | 49.9 µM (inactive) | > 100 µM (inactive) | 73.8 µM (inactive) | > 100 µM (inactive) | 63.1 µM (inactive) | > 100 µM (inactive) | > 100 µM (inactive) | > 100 µM (inactive) | > 100 | 72.3 µM (inactive) | > 100 µM (inactive) | > 100 µM (inactive) | > 100 µM (inactive) | – | > 100 µM (inactive)
CCOc1cc(C2SCC(=O)N2c2ccc3c(c2)Oc2c(Cl)c4c(c(Cl)c2=N3)Oc2cc(N3C(=O)CSC3c3ccc(O)c(OCC)c3)ccc2N=4)ccc1O (stereo not given) | 27.2 µM (inactive) | 23.8 µM (inactive) | 41.9 µM (inactive) | 30.1 µM (inactive) | 48.6 µM (inactive) | – | 38.9 µM (inactive) | – | 2.25 µM (inactive) | 21 µM (inactive) | > 100 µM (inactive) | 29.9 µM (inactive) | 43.1 | 39 µM (inactive) | 11 µM (inactive) | – | 37.2 µM (inactive) | – | 35.2 µM (inactive)
Clc1ccc(/N=C/c2cc3cc(Br)ccc3nc2Cl)cc1 | 14.4 µM (inactive) | – | 17.8 µM (inactive) | > 50 µM (inactive) | 15.7 µM (inactive) | – | – | > 50 µM (inactive) | 13.5 µM (inactive) | – | 1.95 µM (inactive) | > 50 µM (inactive) | 14.2 | 45.1 µM (inactive) | > 50 µM (inactive) | > 50 µM (inactive) | 29.6 µM (inactive) | – | 6.18 µM (inactive)
COC(=O)CCC(C)[C@H]1CCC2C3C(C[C@H](OC(C)=O)[C@@]21C)[C@@]1(C)CCC2(C[C@H]1C[C@H]3OC(C)=O)OOC1(CCCC1)OO2 (stereo not given in full) | > 100 µM (inactive) | 12.9 µM (inactive) | 5.6 µM (inactive) | 29.6 µM (inactive) | 4.47 µM (inactive) | – | 83.6 µM (inactive) | 42.5 µM (inactive) | 4.28 µM (inactive) | 8.93 µM (inactive) | 12.2 µM (inactive) | 27 µM (inactive) | 27.5 | 84.5 µM (inactive) | 7.19 µM (inactive) | 30.4 µM (inactive) | 11.1 µM (inactive) | > 100 µM (inactive) | 7 µM (inactive)
Cc1cccc(-c2nc3ccc([N+](=O)[O-])cc3c(=O)o2)c1 | – | 73.3 µM (inactive) | > 100 µM (inactive) | 48.8 µM (inactive) | 58.5 µM (inactive) | 21.1 µM (inactive) | 36.1 µM (inactive) | 72.3 µM (inactive) | 27.6 µM (inactive) | 44.4 µM (inactive) | > 100 µM (inactive) | 59.8 µM (inactive) | 74.3 | 26.1 µM (inactive) | 47.5 µM (inactive) | > 100 µM (inactive) | – | – | 26.2 µM (inactive)
O=c1c2c(oc3ccccc13)-c1ccccc1OC2 | > 100 µM (inactive) | 96.6 µM (inactive) | 36.7 µM (inactive) | 24.4 µM (inactive) | > 100 µM (inactive) | > 100 µM (inactive) | > 100 µM (inactive) | 53.3 µM (inactive) | > 100 µM (inactive) | 29 µM (inactive) | 26.1 µM (inactive) | 53.3 µM (inactive) | > 100 | 29.3 µM (inactive) | 16.3 µM (inactive) | > 10 µM (inactive) | 53.2 µM (inactive) | – | 46 µM (inactive)
O=[N+]([O-])C(/C(Cl)=C(/Cl)N1CCOCC1)=C1\NCCO1 | > 100 µM (inactive) | > 100 µM (inactive) | – | > 100 µM (inactive) | > 100 µM (inactive) | > 100 µM (inactive) | > 100 µM (inactive) | > 100 µM (inactive) | > 100 µM (inactive) | > 100 µM (inactive) | > 100 µM (inactive) | > 100 µM (inactive) | > 100 | > 100 µM (inactive) | > 100 µM (inactive) | > 100 µM (inactive) | > 100 µM (inactive) | > 100 µM (inactive) | –
COc1ccc(/C=C/c2cnc3ccccc3n2)cc1OC | 75.7 µM (inactive) | 42.6 µM (inactive) | > 100 µM (inactive) | 53.6 µM (inactive) | 33.1 µM (inactive) | 77.3 µM (inactive) | 52.8 µM (inactive) | 52.7 µM (inactive) | > 100 µM (inactive) | 80.2 µM (inactive) | 74.3 µM (inactive) | > 100 µM (inactive) | 37 | 38.2 µM (inactive) | 31 µM (inactive) | 72.1 µM (inactive) | 63.1 µM (inactive) | – | 83.8 µM (inactive)
CC1=NC(C)(C)N(O)C1(C)C | > 100 µM (inactive) | > 100 µM (inactive) | > 100 µM (inactive) | > 100 µM (inactive) | > 100 µM (inactive) | > 100 µM (inactive) | > 100 µM (inactive) | > 100 µM (inactive) | > 100 µM (inactive) | > 100 µM (inactive) | – | > 100 µM (inactive) | > 100 | > 100 µM (inactive) | > 100 µM (inactive) | > 100 µM (inactive) | > 100 µM (inactive) | > 100 µM (inactive) | > 100 µM (inactive)
CC(C)(C)[C@H]1NC(=O)CN1C(=O)OCc1ccccc1 | > 100 µM (inactive) | > 100 µM (inactive) | > 100 µM (inactive) | > 100 µM (inactive) | 36.7 µM (inactive) | > 100 µM (inactive) | 45.6 µM (inactive) | > 100 µM (inactive) | > 100 µM (inactive) | 82 µM (inactive) | – | > 100 µM (inactive) | > 100 | > 100 µM (inactive) | 60.8 µM (inactive) | > 100 µM (inactive) | > 100 µM (inactive) | > 100 µM (inactive) | 43.6 µM (inactive)
